Data from ChEMBL document CHEMBL3137356, “MMV Box Cryptosporidium parvum screening set”.

Each compound was assayed on Cryptosporidium parvum (assay: MMV: Cryptosporidium parvum oocysts (Iowa Strain) were prepared for use by treatment with 10 mM HCl (37 degrees C, 10 min) followed by 2 mM sodium taurocholate in phosphate-buffered saline (PBS) with Ca2+ and Mg2+ (16 degrees C, 10 min) in order to stimulate excystation. The high-throughput screen was carried out by inoculating >90% confluent human ileocecal adenocarcinoma (HCT-8) cells (ATCC) with ~5.5 x 10^3 primed oocysts per well. Experimental compounds or DMSO (vehicle) were added three hours after infection, and cells were incubated for 48 hours.).
Assay type: functional

Row | Compound | Inhibition [%]
1 | CCOc1cc(CNC(C)C(O)c2ccccc2)cc(Cl)c1OCC (stereo not given) | 29.95
2 | Cc1cc(NC(=O)c2cccc(C(F)(F)F)c2)n(-c2nc(-c3ccc4c(c3)OCO4)cs2)n1 | -22.88
3 | Cc1cccc(-n2ncc3c(O)nc(-n4nc(C)cc4NC(=O)c4cc5ccccc5o4)nc32)c1 | 82.48
4 | O=C(Nc1ccccc1O)c1ccc(Oc2cccc(C(=O)Nc3ccccc3O)c2)cc1 | -14.93
5 | Oc1ccccc1CN1CCC2(CCCN(Cc3ccccc3F)C2)C1 (stereo not given) | -2.723
6 | Cl.N=c1n(CCN2CCCCC2)c2ccccc2n1CC(O)c1cccc(Br)c1 (stereo not given) | 3.872
7 | COc1cccc(O)c1CN1CCC2(CCCN(Cc3ccc(F)cc3)C2)C1 (stereo not given) | 46
8 | COc1cccc(Nc2nc(NCCO)c3ccccc3n2)c1.Cl | 65.39
9 | Cc1ccc(-c2cc(C(=O)Nc3ccc(S(=O)(=O)N4CCCCC4)cc3)[nH]n2)c(O)c1 | -59.17
10 | O=C(NCc1ccco1)C1CCN(S(=O)(=O)c2ccc(Cl)cc2)CC1 | -53.31
11 | COc1ccc(C(=O)Nc2ccc3nc(N4CCCCC4)cc(C)c3c2)cc1OC | 6.852
12 | COCCNCC(O)Cn1c2ccc(Cl)cc2c2cc(Cl)ccc21 (stereo not given) | -20.11
13 | COc1ccc(N2CCN(C(CNC(=O)C3CCCCC3)c3ccc4c(c3)OCO4)CC2)cc1 (stereo not given) | -25.24
14 | FC(F)(F)c1ccc(Nc2nnnc3ccccc23)cc1 | -4.73
15 | O=C(NC1CCN(Cc2ccccc2)CC1)c1cc(-c2ccncc2)nc2ccc(Cl)cc12 | 13.62
16 | COc1cc2cc(C(=O)Nc3ccccc3)c(N)nc2cc1OC | -19.13
17 | COc1cccc(NC(=O)Cn2c(C)c(C#N)c3ccccc32)c1 | 14.16
18 | Cn1c(=O)c2cc(C(=O)NCCCN3CCCCCC3)sc2c2ccccc21 | -13.68
19 | Cc1[nH]c(-c2ccc(F)cc2)cc1C(=O)NC1CCN(Cc2ccccc2)CC1 | -23.5
20 | COc1ccc(CCN2CCC(CN(C)Cc3cnn(-c4ccccc4)c3)CC2)cc1 | -0.7856
21 | O=C(NC(c1ccccc1)c1ccc2cccnc2c1O)c1ccccc1 (stereo not given) | 59.29
22 | O=C(O)C(=O)O.Oc1ccccc1CN1CCN(C(c2ccccc2)c2ccccc2)CC1 | -3.109
23 | O=C(NC1CCCC1)c1ccc(N2CCC(NCc3cccc(C(F)(F)F)c3)CC2)cc1 | -29.41
24 | CCOc1cc(Br)c(C(C)NC(=O)c2cccc(OC)c2)cc1OCC (stereo not given) | -25.9
25 | CC(C)=CCN1CCC(C(=O)Nc2ccc(-c3nc4ccccc4[nH]3)cc2)CC1 | -41.53

Row | Compound | Inhibition [%]
26 | CCN(CC)CCn1c(=N)n(CC(O)c2ccc(Cl)c(Cl)c2)c2ccccc21.Cl (stereo not given) | 14.91
27 | CCOc1cc(Cl)c(C(C)NC(=O)c2cccc(OC)c2)cc1OCC (stereo not given) | -11.62
28 | FC(F)(F)c1cccc(Nc2nc(-c3ccccc3)nc3ncccc23)c1 | -10.43
29 | CCN1CCN(c2cc(C)c3cc(NC(=O)c4ccc(OC)c(OC)c4)ccc3n2)CC1 | -21.17
30 | Cc1ccc(Cl)cc1N1CCN(CCCNC(=O)C2CCN(c3nc4ccccc4[nH]3)CC2)CC1 | -53.53
31 | COc1ccc(CNC2CCN(c3ccc(NC(=O)c4cccc(Cl)c4)cc3)CC2)cc1OC | -38.21
32 | Cc1ccc(CSCc2ccc(C(=O)NC3CC3)o2)cc1 | -11.49
33 | CC(NCc1ccccc1)c1cc(Cl)ccc1O (stereo not given) | -51.25
34 | CN1CCN(c2c3c(c(C#N)c4nc5ccccc5n24)CCC3)CC1 | -1.609
35 | CCOc1ccc(C2N(C)c3ccccc3N2C)cc1 | -19.63
36 | COc1ccc(C(=O)Nc2ccc(Cl)cc2C(=O)Nc2ccncc2)cc1 | -23.38
37 | O=C(Nc1ccc(CN2CCOCC2)cc1)c1ccc(-c2ccc(Br)cc2)o1 | 0.1242
38 | CC(=O)NCCc1nc2ccccc2n1Cc1ccc(C(C)C)cc1 | 0.2505
39 | COc1nc(Nc2ccc(C(C)C)cc2)nc(OC)n1 | 4.363
40 | CCN(CC)CCNc1ncnc2c1[nH]c1ccc(Br)cc12 | -47.02
41 | CCOc1cccc(C(=O)Nc2ccc(-c3nc4ccccc4[nH]3)cc2)c1 | -2.618
42 | CN(C)c1ccc(-c2nc3cc(N)ccc3[nH]2)cc1 | -41.71
43 | Cl.Clc1cc(Br)ccc1-c1ccc(CNCC2CCNCC2)o1 | 26.78
44 | O=C(CSc1ccc2nnc(-c3cccc(F)c3)n2n1)Nc1ccc2c(c1)OCO2 | -19.97
45 | Cc1c(C)n(Cc2ccc(F)cc2)c2ccc(C(=O)NCc3ccco3)cc12 | -17.08
46 | CCN(CC)c1ccc(NC(=O)c2cccs2)cc1 | -55.73
47 | CCCC(c1nnnn1C1CCCCC1)N1CCN(C(=O)c2ccco2)CC1.Cl (stereo not given) | -55.52
48 | CC(C)(C)C(=O)Nc1ccc(C(=O)Nc2cccc(-c3nc4ccccc4[nH]3)c2)cc1 | 18.85
49 | COc1ccc(-c2nonc2NC(=O)c2cccc(C)c2)cc1OC | 4.698
50 | COc1cccc(-c2nn(C)c3sc(C(=O)NCCN4CCN(c5ccccc5F)CC4)cc23)c1 | 60.49

Row | Compound | Inhibition [%]
51 | O=C(Nc1ccc(N2CCN(Cc3ccccc3)CC2)cc1)c1cccs1.O=C(O)C(F)(F)F | -70.26
52 | Cc1ccc(CN2CCC(C(=O)Nc3ccc(-c4cc5ccccc5[nH]4)cc3)CC2)o1 | 45.39
53 | O=C(Nc1ccc(N2CCCCC2)c(Cl)c1)c1ccc(Br)o1 | -27.15
54 | Cc1cc(C)c2nc(N3CCC(C(=O)NCCCN4CCC(N5CCCCC5)CC4)CC3)sc2c1 | -56.98
55 | O=C(Nc1ccsc1C(=O)NC1CCCCC1)c1ccc(F)cc1 | -24.81
56 | O=C(Nc1cccc(C(F)(F)F)c1)c1cc(Cl)ccc1O | 41.48
57 | CC(C)(C)c1ccc(C(=O)Nc2nc3ccccc3s2)cc1 | 63.38
58 | CCOc1cccc2sc(N(Cc3cccnc3)C(=O)C3CCCCC3)nc12 | -38.34
59 | CC1CC(C)CN(C(=O)c2ccc(Cl)cc2Cl)C1 (stereo not given) | -45.44
60 | COc1ccccc1CNC(=O)C1c2ccccc2C(=O)N(CC(C)C)C1c1cccs1 (stereo not given) | 58.94
61 | OC(CNC1CCCC1)Cn1c2ccccc2c2ccccc21 (stereo not given) | -40.56
62 | COc1ccc(C2N(C)c3ccccc3N2C)cc1 | -12.31
63 | CCN(CC)c1cc(C)c2cc(NC(=O)c3cccc(OC)c3)ccc2n1 | -27.53
64 | CC(C)OCc1cc(CN2CCN(c3cccc(Cl)c3)CC2)c(O)c2ncccc12 | 54.97
65 | O=C(Nc1ccc(F)c(Cl)c1)Nc1ccc(Cl)c(Cl)c1 | 36.98
66 | CCOc1ccc(-c2nc(NC(=O)c3cccc(S(C)(=O)=O)c3)sc2C)cc1 | 26.25
67 | Clc1ccc2[nH]c3c(NCCCN4CCOCC4)ncnc3c2c1 | 37.37
68 | COc1ccccc1N1CCN(C(CNS(=O)(=O)c2ccc(Cl)cc2)c2cccnc2)CC1 (stereo not given) | 38.78
69 | CCCc1c(C)nc2ccccc2c1O | -14.82
70 | CCOc1c(Cl)cc(CNC(C)C(O)c2ccccc2)cc1OC (stereo not given) | -2.917
71 | CCCN(CCC)CCCNC(=O)c1cc2c(-c3ccc(OC)c(OC)c3)nn(C)c2s1 | 32.69
72 | CN1c2ccccc2N(C)C1c1ccc2c(c1)OCO2 | -58.41
73 | O=C(NCC1Cc2cccc(-c3ccncc3)c2O1)c1csc2c1CCCC2 (stereo not given) | 13.55
74 | C=C(C)CCC(C)N1CCC(N2CCC(C(=O)NCCc3ccccc3)CC2)CC1 (stereo not given) | -27.27
75 | C=CCc1c(C)nc2ccccc2c1O | -10.8
